From patent publication US20190175479A1, “Zinc-Amino Acid-Tripolyphosphate Complexes” (Colgate-Palmolive Company, priority 2017, published 2019)

What was measured:
Assay type in all cases: physicochemical
[1] = Titration of zinc chloride with sodium tripolyphosphate, clarity of solution; details: zinc chloride titrated with sodium tripolyphosphate; solution cloudy until about 1 equivalent of STPP was added
Description: In the single component titration procedure, a scintillation vial (20 mL) is loaded with 2 mL of a 0.25M zinc nitrate solution and 6 mL of distilled water. The vial is stirred on a magnetic stir plate with an immersed pH electrode. Initial pH is measured. While stirring, the solution is slowly titrated with a 0.75M aqueous solution of arginine in small portions (e.g., 0.01-0.1 mL). In between each addition, the solution is allowed to equilibrate and the pH is recorded. At the conclusion of the experiment, the molar equivalent of added arginine is plotted against the pH. The slope is calculated and plotted as well to highlight the inflection points, which indicate where complex formation takes places.
Substantially the same single-component titration procedure is also performed in a titration of 0.75M zinc chloride with 0.25M sodium tripolyphosphate.

[2] = Dilution experiment (precipitation on dilution with water); details: solutions in distilled water, ZLP 200 mg/mL, ZLC 185 mg/mL; diluted with water at ratios from 1:2 to 1:16; ZLC result at dilutions of 1:8 to 1:16
Description: (§1) A solution of ZLP in distilled water at a concentration of 200 mg/mL (23.6 wt % zinc) is prepared. For comparison, a solution of zinc-lysine-chloride complex (ZLC) ([Zn(lysine)2Cl]Cl) is prepared at a concentration of 185 mg/mL. Both solutions are diluted with water at ratios from 1:2 to 1:16.

[3] = Foaming experiment with sodium lauryl sulfate; details: 7.25 wt % complex (0.85 wt % zinc) with 2 wt % sodium lauryl sulfate in distilled water; vial shaken ten times
Description: A solution of ZLP in distilled water at a concentration of 7.25 wt % (0.85 wt % zinc) containing also 2 wt % of sodium lauryl sulfate is compared to a solution of ZLC and sodium lauryl sulfate at the same concentrations and to a solution of sodium lauryl sulfate. Each solution is sealed in a screw-cap vial and shaken back and forth ten times. […] A similar experiment is conducted using an 1:10 aqueous slurry of the toothpaste formula of Example 1 compared to a control toothpaste having the same composition except for the absence of ZLP (in the control, the 7.25% ZLP is replaced by 0.5 wt % TSPP and 6.75 wt % sorbitol, 70%).

[4] = Polyphosphate experiment (mixing with STPP solution); details: 5 mL of aqueous complex solution mixed with 5 mL of 2 wt % STPP solution
Description: Aqueous solutions of ZLP and ZLC, respectively, are prepared as described above, and 5 mL of each of these solutions is mixed with 5 mL STPP solution at a concentration of 2 wt %. […] Thus, ZLP complex is stable in the presence of additional STPP, whereas other zinc complexes may not be.

[5] = Storage of undiluted solution at room temperature, repeat LC-MS analysis; details: undiluted 200 mg/mL solution stored at room temperature for one month
Description: About 6.0 g of lysine hydrochloride is dissolved in 250 ml distilled water with stirring at room temperature. About 12.0 g sodium tripolyphosphate pentabasic is added with stirring, followed by either 50% aqueous sodium hydroxide solution or concentrated hydrochloric acid solution to adjust the pH to either 5, 6, 7, 8, 9 or 10. To the resulting solution, about 2.68 g of zinc oxide is slowly added. The mixture is then allowed to stir at either room temperature, 50° C. or 80° C., for 2 hours. The reaction is monitored by liquid chromatography-mass spectrometry (LC-MS, using electrospray ionization-tandem mass spectrometer running positive ion mode). LC separation is achieved on Agilent Zorbax SB-Aq column (2.1 mm i.d.×50 mm, 3.5 μm particle size), running 5% water/methanol at 70 μL/minute with 1 μL injection volume.
as §1

Row | Compound | solubility in aqueous titration solution [1] | precipitation upon dilution with water [2] | foaming of solution with SLS relative to aqueous SLS solution [3] | appearance after mixing with STPP solution [4] | change of LC-MS spectrum after storage [5]
1 | O=P([O-])([O-])OP(=O)([O-])OP(=O)([O-])[O-].[Na+].[Na+].[Na+].[Zn+2] [Na3Zn(P3O10)] | soluble |  |  |  | 
2 | O=P([O-])([O-])OP(=O)([O-])OP(=O)([O-])[O-].[Na+].[Zn+2].[Zn+2] [NaZn2(P3O10)] | poorly soluble |  |  |  | 
3 | NCCCCC(N)C(=O)O.NCCCCC(N)C(=O)O.[Cl-].[Cl-].[Zn+2] (stereo not drawn) [ZLC, [Zn(lysine)2Cl]Cl] |  | significant precipitation of insoluble material | significantly inhibited | produces a white precipitate | 
4 | [Zn(C6H14N2O2)(P3O10)Na4]^+Cl^− [ZLP] |  | no precipitation occurs at any dilution | comparable | remains clear and homogenous | has not changed
